Structures are written as SMILES.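 The compound was tested at five concentrations on cells cultured in 96-well plates, with a 48-hour exposure period. GI50 is the concentration that inhibits growth by half. The concentration for full growth arrest is given as TGI.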

In PubChem BioAssay (NCI) one finds TGI and GI50 data, which are given here for ten molecules.

What all share (experiment): NCI anticancer screen, dose series, 48 h
The subject of assay [1] is HCT-15 colon.
The test system of assay [2] is SK-MEL-28 melanoma.
The test system of assay [3] is ACHN renal.
The test system of assay [4] is SF-268 CNS.
In assay [5] the test system is M14 melanoma.
Assay [6] relates to LOX IMVI melanoma.
Assay [7] concerns SNB-19 CNS.
Assay [8] relates to MALME-3M melanoma.
Assay [9] deals with SK-MEL-2 melanoma.
For assay [10], the system named is EKVX NSCLC.

For the molecule `O=C1C2C3C=C4c5ccccc5N(c5ccccc5)C4(C2C(=O)N1c1ccccc1)C1C(=O)N(c2ccccc2)C(=O)C31` (stereo not drawn), the TGI in assay [1], in assay [2], in assay [3], in assay [4], in assay [5] and in assay [6] was above 100 µM in each case. The TGI in [7], in assay [8] and in [9] was above 100 µM in each case.

With `Cc1cc2c(C)nn(Cc3ccccc3)c2c(C(=O)O)c1C`, the TGI in assay [1], in assay [2], in assay [10], in assay [3], in assay [4] and in assay [6] was above 100 µM each time. Further, the TGI in [7], in assay [8] and in [9] was above 100 µM throughout.

Consider `O=S(=O)(/N=c1\scc(-c2ccccc2)n1-c1ccccc1)c1ccc(N2N=C3c4ccccc4CC3C2c2ccc(Cl)cc2)cc1` (stereo not drawn), for which the GI50 was 47.7 µM in assay [1]; 67.7 µM in assay [2]; 61.1 µM in assay [10]; 40.1 µM in assay [3]; above 100 µM in [4]; above 100 µM in assay [5]. Further, the figures for the GI50 in assay [6], in assay [7] and in assay [9] were 21.5 µM, 78.8 µM and 36 µM, respectively. Also, the TGI in assay [1], in assay [2], in assay [10], in [3], in [4] and in assay [5] was above 100 µM each time. Moreover, the TGI was 43.5 µM in assay [6], above 100 µM in assay [7] and above 100 µM in assay [9].

Consider `O=C(Oc1cccnc1)c1cccnc1Nc1ccnc(C(F)(F)F)c1`, for which the GI50 is 27.2 µM in [1]; 38.1 µM in assay [2]; 51.3 µM in [10]; 21.7 µM in assay [3]; 5.63 µM in [4]; 8.16 µM in [6]. Further, the GI50 in assay [7] was 48.9 µM; in [8] it was 13 µM; in assay [9], 5.7 µM. Moreover, the TGI in assay [1] was above 100 µM; in assay [2], above 100 µM; in assay [10], above 100 µM; in [3] it was 66 µM; in assay [4], above 100 µM; in assay [6], 26 µM. In addition, the figures for the TGI in assay [7], in assay [8] and in [9] were above 100 µM, 69.8 µM and 62 µM, respectively.

As for `COc1cccc(-c2nc3cc(NC(=O)c4ccc(Cl)c(C#N)c4)ccc3o2)c1`, the GI50 in assay [1] is above 100 µM; in assay [6], 3.7 µM; in [7], 3.18 µM; in [9], 9.21 µM. Moreover, the TGI in assay [1] is above 100 µM; in assay [6], above 100 µM; in assay [7], above 100 µM; in [9], 74.2 µM.

For the molecule `C[N+](C)(C)CCC(=O)CC[N+](C)(C)C`, the TGI in [1] was 42.9 µM; in [2], 50.1 µM; in [10] it was above 100 µM; in assay [3], 31.3 µM; in [4], 42.9 µM; in assay [5] it was 34.2 µM. In addition, the TGI was above 100 µM in [7], 47.6 µM in assay [8] and 66.1 µM in [9].

Turning to `Clc1ccc(-c2cn3ccnc3c(-c3ccc(Cl)cc3)n2)cc1`, the GI50 in assay [1] was 3.38 µM; in [2] it was above 100 µM; in [10] it was 31.9 µM; in assay [3], 13 µM; in assay [4] it was 15.4 µM; in [5] it was 13.7 µM. For the same molecule, the GI50 in assay [6] was 12.7 µM; in assay [7], 45.8 µM; in assay [9], 61.9 µM. Also, the TGI is 30.9 µM in [1]; above 100 µM in assay [2]; above 100 µM in [10]; 52.3 µM in [3]; above 100 µM in assay [4]; 84.7 µM in assay [5]. The TGI in [6] was 31.5 µM; in assay [7] it was above 100 µM; in assay [9] it was above 100 µM.

With `O=C1OCC2=C1C(c1cccc(F)c1)c1cc3c(cc1N2CCO)OCO3` (stereo not drawn), the GI50 in [1] was 1.08 µM; in assay [2], 20.3 µM; in assay [10], 3.03 µM; in [3], 3.03 µM; in assay [4], 3.2 µM; in assay [5] it was 0.357 µM. Besides, the GI50 in assay [6] is 2.35 µM; in [7] it was 3 µM; in assay [9], 2.46 µM. Also, the TGI in [1], in [2], in assay [10], in assay [3], in [4] and in assay [5] was above 50 µM in each case. Also, the TGI in [6], in assay [7] and in assay [9] was above 50 µM throughout.

For `CC[O-].CC[O-].O=C([CH-]C(=O)c1ccccc1)CCCCCCCCC(=O)[CH-]C(=O)c1ccccc1.[Ti+4]`, the GI50 in [1], in assay [2], in assay [10], in [3], in [4] and in assay [5] was above 100 µM each time. The GI50 is above 100 µM in assay [6], 73.6 µM in assay [8] and above 100 µM in assay [9]. In addition, the TGI in [1], in assay [2], in assay [10], in [3], in assay [4] and in assay [5] was above 100 µM each time. In addition, the TGI in [6], in assay [8] and in assay [9] was above 100 µM throughout.

For `CC(CO)Nc1cc(-c2[nH]c3cccnc3c2-c2ccc(F)cc2)ccn1` (stereo not drawn), the GI50 in assay [1] was 10.4 µM; in assay [2], above 25 µM; in assay [3], 3.99 µM; in [4], 16.7 µM; in assay [5], above 25 µM; in assay [6], 13.7 µM. Besides, the GI50 in assay [7] was above 21.6 µM; in [8], 16.9 µM; in [9], above 25 µM. Further, the TGI in assay [1], in assay [2], in assay [3], in assay [4], in [5] and in assay [6] was above 25 µM each time. The TGI in assay [7], in [8] and in assay [9] was above 25 µM in each case.
